Laboratory results reported in publication PMC6274827 (2018).

How the values were obtained:
[1] = tested on: Tel22 (DNA, G4) AGGGTTAGGGTTAGGGTTAGGG; experiment: UV-Vis titration, Direct Fit; conditions: 5 mM K+, 95 mM Li+; 10 mM lithium cacodylate, pH 7.2; equivalent independent sites assumed; per site
[2] = tested on: F21D (DNA, G4) GGGTTAGGGTTAGGGTTAGGG; experiment: FRET melting; conditions: 5 mM K+, 95 mM Li+, 10 mM lithium cacodylate, pH 7.2, 0.2 µM F21D

Row | Ka [1] | ΔTm ([2]; 7.5 eq. compound) | ΔTm ([2]; 20 eq. compound, weak stabilization up to 8 eq.) | SMILES
1 | (4.7 ± 0.7) × 10^6 M^-1 | 36 ± 2 °C | – | NCCCNCCCCNCCCNC(=O)c1ccc(-c2c3nc(c(-c4ccc(C(=O)NCCCNCCCCNCCCN)cc4)c4ccc([nH]4)c(-c4ccc(C(=O)NCCCNCCCCNCCCN)cc4)c4nc(c(-c5ccc(C(=O)NCCCNCCCCNCCCN)cc5)c5ccc2[nH]5)C=C4)C=C3)cc1
2 | (1.4 ± 0.7) × 10^7 M^-1 | – | 33 ± 2 °C | NCCCNCCCCNCCCNC(=O)c1ccc(-c2c3nc(c(-c4ccc(C(=O)NCCCNCCCCNCCCN)cc4)c4ccc([n-]4)c(-c4ccc(C(=O)NCCCNCCCCNCCCN)cc4)c4nc(c(-c5ccc(C(=O)NCCCNCCCCNCCCN)cc5)c5ccc2[n-]5)C=C4)C=C3)cc1.O.[Zn+2]
